Source: paper PMC9706575 (Journal of Medicinal Chemistry, 2022)

Columns and labels:
[1] = mouse, in vivo, iv
targefrin = assay: ITC; reverse titration: 200 μM protein in the syringe, 20 injections of 2.5 μL into 10 μM compound in the cell; 25 mM Tris pH 7.5, 150 mM NaCl, 1% DMSO, 25 °C

Chain of ephrin type-A receptor 2 ligand-binding domain (P29317 27-200): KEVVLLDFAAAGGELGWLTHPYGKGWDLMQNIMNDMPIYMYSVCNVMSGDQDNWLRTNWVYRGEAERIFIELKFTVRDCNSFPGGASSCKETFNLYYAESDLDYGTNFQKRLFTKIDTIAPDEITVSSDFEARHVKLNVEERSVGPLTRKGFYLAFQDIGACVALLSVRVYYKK

| Compound | Body weight (g), Friday [1] | Body weight (g), Thursday [1] | Body weight (g), Wednesday [1] | Kd (targefrin) | dH (targefrin) |
| --- | --- | --- | --- | --- | --- |
| CC(=O)O[C@H]1C(=O)[C@@]2(C)[C@H]([C@H](OC(=O)c3ccccc3)[C@]3(O)C[C@H](OC(=O)[C@H](O)[C@@H](NC(=O)c4ccccc4)c4ccccc4)C(C)=C1C3(C)C)[C@]1(OC(C)=O)CO[C@@H]1C[C@@H]2O [PTX, paclitaxel] | 22.11 g | 21.95 g | 21.85 g |  |  |
| ephrin type-A receptor 2 ligand-binding domain (from UniProt P29317 27-200) (domain or fragment) |  |  |  | 21.7 nM | -20.2 kcal/mol |
